Data as given in ChEMBL document CHEMBL1667742, “Angiotensin II receptor type 1 (AT1) selective nonpeptidic antagonists--a perspective” (Bioorg Med Chem, 2010).
Where a chain is given by its changes, count along the chain named.

Tests used:
[1] = Binding affinity to angiotensin AT1 receptor in bovine adrenal cortex membranes
[2] = target: T1, Type-1 angiotensin II receptor (Oryctolagus cuniculus, UniProt P34976); test: Antagonist activity at angiotensin AT1 receptor in rabbit aortic strip assessed as inhibition of angiotensin 2-induced contractile response; assay type: functional; conditions: read-out: pA2 (converted)
T1 sequence (P34976 whole entry): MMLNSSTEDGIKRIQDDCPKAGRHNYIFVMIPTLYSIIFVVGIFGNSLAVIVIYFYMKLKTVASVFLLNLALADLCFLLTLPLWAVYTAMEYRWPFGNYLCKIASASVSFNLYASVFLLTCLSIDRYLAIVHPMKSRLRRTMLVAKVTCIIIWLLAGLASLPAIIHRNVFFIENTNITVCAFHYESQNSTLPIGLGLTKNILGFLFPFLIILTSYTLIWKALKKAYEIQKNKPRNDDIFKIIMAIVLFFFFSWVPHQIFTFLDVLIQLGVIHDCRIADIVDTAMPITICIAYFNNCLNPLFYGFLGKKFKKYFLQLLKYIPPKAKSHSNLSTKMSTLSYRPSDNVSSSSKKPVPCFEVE

[3] = target: T1, Type-1 angiotensin II receptor; test: Antagonist activity at angiotensin AT1 receptor in rabbit thoracic aortic rings; assay type: functional; conditions: read-out: pA2 (converted)
[4] = Binding affinity to angiotensin AT1 receptor in rat lung membranes; assay type: cell membranes, Membrane
[5] = tested on: Rattus norvegicus; test: Antihypertensive activity in po dosed conscious goldblatt hypertensive rat model assessed as reduction of angiotensin 2-induced mean arterial blood pressure; assay type: functional; conditions: Artery
[6] = (§1) Antagonist activity at angiotensin AT1 receptor in rat liver membranes; assay type: functional, cell membranes, Membrane
[7] = tested on: Rattus norvegicus; test: Antihypertensive activity in po dosed renal hypertensive rat model; assay type: functional; conditions: read-out: ED50
[8] = Binding affinity to angiotensin AT1 receptor in rat liver membranes; assay type: cell membranes, Membrane
[9] = target: T2, Type-1 angiotensin II receptor (Bos taurus) (UniProt P25104); test: Binding affinity to angiotensin AT1 receptor in bovine adrenal cortex membranes; assay type: cell membranes; conditions: Membrane
T2 sequence (whole entry): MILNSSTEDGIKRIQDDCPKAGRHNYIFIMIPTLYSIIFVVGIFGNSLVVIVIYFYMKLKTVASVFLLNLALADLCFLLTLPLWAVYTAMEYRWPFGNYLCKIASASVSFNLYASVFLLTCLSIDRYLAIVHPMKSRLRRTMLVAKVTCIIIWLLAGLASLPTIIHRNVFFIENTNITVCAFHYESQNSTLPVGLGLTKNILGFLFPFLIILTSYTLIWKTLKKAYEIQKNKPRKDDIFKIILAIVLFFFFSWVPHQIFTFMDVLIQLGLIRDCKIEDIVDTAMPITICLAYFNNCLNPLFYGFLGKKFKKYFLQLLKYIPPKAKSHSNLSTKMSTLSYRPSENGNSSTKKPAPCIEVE

[10] = Displacement of radiolabeled angiotensin2 from angiotensin AT1 receptor in rat adrenal cortex membranes; assay type: cell membranes, Membrane
[11] = Antagonist activity at angiotensin AT1 receptor in rat kidney homogenates; assay type: functional, tissue-based
[12] = Antagonist activity at angiotensin AT1 receptor in rat adrenal cortical membranes; assay type: functional, cell membranes
[13] = tested on: Rattus norvegicus; test: Antihypertensive activity in iv dosed renal hypertensive rat model; assay type: functional; conditions: read-out: ED50
[14] = Displacement of radiolabeled angiotensin2 from angiotensin AT1 receptor in rat vascular smooth muscle
[15] = Antagonist activity at angiotensin AT1 receptor in rat uterine membranes; assay type: functional, cell membranes
[16] = target: T1, Type-1 angiotensin II receptor; test: Antagonist activity at angiotensin AT1 receptor in rabbit aorta assessed as reduction of angiotensin 2-induced contractile response; assay type: functional, tissue-based; conditions: read-out: pA2 (converted)
[17] = tested on: Rattus norvegicus; test: Inhibition of angiotensin 2-induced response in intraduodenally dosed pithed normotensive rat; assay type: functional; conditions: Rattus norvegicus, intraduodenal
[18] = tested on: Rattus norvegicus; test: Inhibition of angiotensin 2-induced response in iv dosed pithed normotensive rat; assay type: functional
[19] = target: T3, Type-1 angiotensin II receptor (Cavia porcellus, UniProt Q9WV26); test: Antagonist activity at angiotensin AT1 receptor in guinea pig ileum; assay type: functional, tissue-based; conditions: read-out: pA2 (converted)
T3 sequence (Q9WV26 whole entry): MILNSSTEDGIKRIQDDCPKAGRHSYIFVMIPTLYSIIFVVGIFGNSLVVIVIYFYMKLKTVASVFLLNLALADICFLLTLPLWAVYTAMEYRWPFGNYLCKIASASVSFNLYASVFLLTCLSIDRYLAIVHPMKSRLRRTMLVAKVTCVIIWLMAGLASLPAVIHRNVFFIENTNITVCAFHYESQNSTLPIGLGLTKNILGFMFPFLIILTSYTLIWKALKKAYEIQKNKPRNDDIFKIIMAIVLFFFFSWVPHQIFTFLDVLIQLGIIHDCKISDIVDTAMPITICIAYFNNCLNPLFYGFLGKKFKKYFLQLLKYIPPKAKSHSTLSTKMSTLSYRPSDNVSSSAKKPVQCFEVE

[20] = target: T4, Type-1 angiotensin II receptor (Homo sapiens) (UniProt P30556); test: (§2) Binding affinity to angiotensin AT1 receptor
T4 sequence (whole entry): T1 sequence (P34976 whole entry) with M2I, A49V, V254I, V270I, H272R, K311R, S349T, V353A

[21] = Antagonist activity at angiotensin AT1 receptor in rat mesenteric artery; assay type: functional
[22] = tested on: Rattus norvegicus; test: Antihypertensive activity in po dosed renal hypertensive rat model assessed as reduction of angiotensin 2-induced blood pressure up to 24 hrs; assay type: functional
[23] = target: T4, Type-1 angiotensin II receptor (Homo sapiens); test: Ratio of compound Ki to losartan Ki for angiotensin AT1 receptor
[24] = tested on: Rattus norvegicus; test: Ratio of compound ED50 to losartan ED50 for po dosed renal hypertensive rat model; assay type: functional
[25] = species on record: Rattus norvegicus; test: Antihypertensive activity in spontaneous hypertensive rat model assessed as reduction of blood pressure; assay type: functional
[26] = target: T4, Type-1 angiotensin II receptor (Homo sapiens); test: Antagonist activity at angiotensin AT1 receptor; assay type: functional
[27] = tested on: Rattus norvegicus; test: Antihypertensive activity in renal hypertensive rat model assessed as reduction of mean arterial blood pressure at 30 mg/kg, po; assay type: functional, Artery; set-up: scale not given: the % may be the effect or the level left
[28] = target: T5, Type-1 angiotensin II receptor (Oryctolagus cuniculus) (UniProt P34976); test: (§3) Antagonist activity at angiotensin AT1 receptor in rabbit aorta; assay type: functional, tissue-based
T5 sequence (whole entry): T1 sequence (P34976 whole entry)

[29] = tested on: Rhesus monkey; test: Antihypertensive activity in salt depleted normotensive monkey model assessed as reduction of blood pressure at 10 mg/kg, po; assay type: functional, Macaca mulatta; set-up: scale not given: the % may be the effect or the level left
[30] = tested on: Rattus norvegicus; test: Antihypertensive activity in renal hypertensive rat model assessed as reduction of mean arterial blood pressure at 10 mg/kg, po; assay type: functional, Artery; set-up: scale not given: the % may be the effect or the level left
[31] = Oral bioavailability in rat; assay type: ADME, organism-based; conditions: in vivo
[32] = tested on: Rhesus monkey; test: Antihypertensive activity in rhesus monkey assessed as inhibition of angiotensin 2-induced pressor response at 10 mg/kg, po after 4 to 24 hrs; assay type: functional; conditions: Macaca mulatta
[33] = target: T6, Type-1 angiotensin II receptor (Homo sapiens, UniProt P30556); test: as §2
T6 sequence (P30556 whole entry): T1 sequence (P34976 whole entry) with M2I, A49V, V254I, V270I, H272R, K311R, S349T, V353A

[34] = tested on: Rattus norvegicus; test: Antihypertensive activity in furosemide-treated sodium depleted rat model assessed as reduction of blood pressure at 3 mg/kg, po; assay type: functional
[35] = Half life in rat; assay type: ADME, organism-based; conditions: in vivo
[36] = tested on: Rattus norvegicus; test: Antihypertensive activity in furosemide-treated sodium depleted rat model assessed as reduction of blood pressure at 10 mg/kg, po; assay type: functional
[37] = species on record: Rattus norvegicus; test: as §1; assay type: functional, cell membranes; conditions: Membrane
[38] = Binding affinity to angiotensin AT1 receptor in rat cortical membranes; assay type: cell membranes
[39] = target: T1, Type-1 angiotensin II receptor; test: as §3; assay type: functional, tissue-based
[40] = target: T1, Type-1 angiotensin II receptor; test: Displacement of [125I]-Sar1Ile8-angiotensin 2 from angiotensin AT1 receptor in rabbit aortic membranes; assay type: cell membranes
[41] = species on record: Rattus norvegicus; test: Antihypertensive activity in renal hypertensive rat model assessed as reduction of blood pressure; assay type: functional

SMILES: CCc1nc2c(C)cc(C)nc2n1Cc1ccc2c(c1)C(Cc1nnn[nH]1)c1ccccc1-2 (centres undefined)
- IC50 [1]: 11 nM
- Kb [2]: 0.631 nM

SMILES: CCCCc1nc2cc(OC)cc(C(=O)O)c2n1Cc1ccc(N(CC)C(C(=O)O)c2ccccc2)cc1 (centres undefined)
- Kb [3]: 5.01 nM

SMILES: CCCc1nc2c(C)cc(-c3nc4ccccc4n3C)cc2n1Cc1ccc(-c2ccccc2C(=O)O)cc1
- Ki [4]: 3.7 nM

SMILES: Cc1nc(C)c2c(n1)N(Cc1ccc(-c3ccccc3-c3nnn[nH]3)cc1)C(=O)CC2 [TASOSARTAN]
- ED50 [5]: 0.58 mg/kg
- IC50 [6]: 5.2 nM

SMILES: CCCCc1nc(Cl)c(CO)n1Cc1ccc(-c2ccccc2-c2nnn[nH]2)cc1 [LOSARTAN]
- ED50 [7]: 0.59 mg/kg
- IC50 [8]: 6.7 nM
- Activity [9]: 11.6 nM
- IC50 [10]: 19 nM
- pA2 [11]: 7.8
- IC50 [12]: 0.82 nM
- ED50 [13]: 0.78 mg/kg
- IC50 [14]: 20 nM

SMILES: CCCCc1nn(CCCC)c(=O)n1Cc1ccc(-c2ccccc2-c2nn[nH]n2)cc1
- IC50 [15]: 5.1 nM
- Kb [16]: 1.38 nM

SMILES: CCc1nc2c(C)cc(C)nc2n1Cc1ccc(-c2ccccc2S(=O)(=O)NC(=O)NCC2CC2)cc1
- IC50 [8]: 1000 nM
- ED50 [17]: 0.012 mg/kg
- ED50 [18]: 0.014 µmol/kg

SMILES: CCCc1nc2cc(C(=O)OC)[nH]c2n1Cc1ccc(-c2ccccc2C(=O)O)cc1
- Kb [19]: 15.8 nM

SMILES: CCCCc1nc2c(n1Cc1ccc(-c3ccccc3-c3nnn[nH]3)cc1)C(=O)N1C3CCC(CC3)N1C2
- pKb [20]: 10.6
- IC50 [21]: 1.3 nM

SMILES: CCc1cc2c(c(CC)n1)CCC(=O)N2Cc1ccc(-c2ccccc2-c2nnn[nH]2)cc1
- ED50 [22]: 3 mg/kg

SMILES: CCCCC1=NC(Cl)=C(C(=O)O)C(C)N1Cc1ccc(-c2ccccc2-c2nn[nH]n2)cc1 (centres undefined)
- Ratio Ki [23]: 10
- Ratio ED50 [24]: 20
- ED50 [25]: 0.08 µmol/kg
- Kb [26]: 0.45 nM

SMILES: CCCCc1ncc(/C=C2/C(=O)N(CCCC)C(=O)N2Cc2csc(C)n2)n1Cc1ccc(C(=O)OC)cc1
- Activity [27]: 40%
- Activity [28]: 3.8 nM
- Activity [29]: 27%
- Activity [30]: 25%

SMILES: CCCCc1nn(-c2ccccc2C(F)(F)F)c(=O)n1Cc1ccc(-c2ccccc2S(=O)(=O)NC(=O)c2ccccc2)cc1 [L-159913]
- bioavailability [31]: 44%
- inhibition in vivo at 10 mg/kg [32]: 76%
- Ki [33]: 1.7 nM

SMILES: CCc1nc2c(C)cc(C)nc2n1Cc1cccc([C@@H](c2ccccc2)[C@@H](C)C(=O)O)c1
- bioavailability [31]: 91%
- Activity [34]: 24 mmHg
- half-life [35]: 9.1 h
- Activity [36]: 39 mmHg
- Activity [37]: 0.069 µM

SMILES: CCCCc1nc2ccn(CC(=O)N(C)C)c(=O)c2n1Cc1ccc(-c2ccccc2-c2nnn[nH]2)cc1
- IC50 [38]: 0.7 nM
- IC50 [39]: 0.2 nM

SMILES: CCCCc1nn(CC(C)(C)C)c(=O)n1Cc1ccc(-c2ccccc2-c2nnn[nH]2)cc1
- IC50 [40]: 1.2 nM

SMILES: CCc1nc2c(C)cc(C)nc2n1Cc1ccc2nc(-c3ccccc3NS(=O)(=O)C(F)(F)F)ccc2c1 [GA0113]
- ED25 [41]: 0.015 mg/kg
- bioavailability [31]: 94%
